{"source": "patent US20230380460A1", "about": "(priority 2020, published 2023)", "assay_type_in_all_cases": "cell-based", "key": {"lactic flora": {"system": "lactic flora", "experiment": "Spoilage analysis of cooked emulsified sausage: lactic flora", "details": "cooked emulsified sausage during storage", "protocol": "(§1) A part was inoculated on surface with Listeria monocytogenes for the challenge test and the other part was kept safe for shelf life microbiological study as well as organoleptic and physical characterization. Cooked emulsified sausages were then stored in vacuum packaging.\n(§2) Microbiological analysis was performed according to current standard EC regulation 2073/2005, at d0 after packaging, several days during the storage (from D4 to D7 or D14 according to the studies).\n(§3) For cooked emulsified sausage, 14 days of shelf-life with 7 days of storage at 4° C. and 7 days at 8° C., to simulate a break in the cold chain (standardized method NF V01-003).\n(§4) Group of microorganisms counts performed are listed below: • Total plate count (NF EN ISO 4833-1), • Lactic acid bacteria (NF ISO 15214) both mesophilic and psychotrophic • Enterobacteriaceace (ISO 21528-2), • Pseudomonas sp. (EN ISO 13720), • Brochothrix thermosphacta • Anaerobic enumeration of sulfito-reducing bacteria (NF V08-061), • Challenge test Listeria monocytogenes (NF-EN ISO 11290-2). • Challenge test Salmonella (NF-EN ISO 6579-1)."}, "[1]": {"system": "total flora (total plate count)", "experiment": "Spoilage analysis of cooked emulsified sausage: total plate count", "details": "cooked emulsified sausage during storage", "protocol": "as §1, §2, §3, §4"}, "Listeria monocytogenes": {"system": "Listeria monocytogenes", "details": "fresh ground sausage, d8"}}, "data": [{"substance": "lactate", "values": [{"measurement": "Growth of lactic flora", "setting": "lactic flora", "result": "normal growth"}, {"measurement": "Growth of total flora", "setting": "[1]", "result": "normal growth"}, {"measurement": "Δ log cfu/g of Listeria growth versus untreated control", "setting": "Listeria monocytogenes", "result": "−0.9", "unit": "log cfu/g"}]}]}
